Tests used:
Assay type in all cases: cell-based, human
[1] = system: Myc and Mcl-1 protein in SU-DHL-4 cells; experiment: In vitro washout, Myc and Mcl-1 protein Western blot, SU-DHL-4; details: 0.25 µmol/L enitociclib, atuveciclib (1 µmol/L)
Description: (§1) Evaluation of the pharmacodynamic extent and duration of CDK9 inhibition were performed in vitro using the human DLBCL cell lines SU-DHL-4 and SU-DHL-10, harboring MYC amplification and MYC overexpression with P57T mutation, respectively. Cells were seeded 18 hours prior to treatment for 4 hours with one of three CDK9 inhibitors, enitociclib (0.25 and1 µmol/L), atuveciclib (1 µmol/L) or KB-0742 (1 µmol/L), cells were washed, and incubation continued until 48 hours posttreatment. Samples were collected before treatment (−4), immediately after treatment (0), and at 1, 2, 4, 8, 12, 16, 24, and 48 hours after washout for RNA sequencing (RNA-seq), qPCR, and Western blotting analyses.
(§2) The levels of p-Ser2, p-Ser5 and total RNA polymerase II, Myc, Mcl-1, cleaved PARP (cPARP), and cleaved Caspase 3 were assessed by Western blotting and quantified near-infrared detection and background corrected quantification of fluorescence intensity on an Odyssey Imaging System with IRDye secondary antibodies (LI-COR Biosciences). For quantification, the protein levels were normalized to GAPDH or HSP90, expressed as a ratio to DMSO or vehicle control at matched timepoints. The normalized relative protein levels of p-Ser2 were used for a treatment effect comparison by performing an ANOVA using PROC MIXED in SAS. The ANOVA model included treatment, timepoints and their interactions as fixed effects. […]

[2] = system: SU-DHL-4 and SU-DHL-10 cell lines; experiment: RNA-seq differential gene expression in DLBCL cell lines; details: for PHF23 and TP53RK by RNA-seq (in words): 1 µmol/L, 4 hours
Description: Evaluation of the pharmacodynamic extent and duration of CDK9 inhibition were performed in vitro using the human DLBCL cell lines SU-DHL-4 and SU-DHL-10, harboring MYC amplification and MYC overexpression with P57T mutation, respectively. Cells were seeded 18 hours prior to treatment for 4 hours with one of three CDK9 inhibitors, enitociclib (0.25 and1 µmol/L), atuveciclib (1 µmol/L) or KB-0742 (1 µmol/L), cells were washed, and incubation continued until 48 hours posttreatment. Samples were collected before treatment (−4), immediately after treatment (0), and at 1, 2, 4, 8, 12, 16, 24, and 48 hours after washout for RNA sequencing (RNA-seq), qPCR, and Western blotting analyses. Total RNA was extracted from blood of patients and cell lines using RNeasy Plus Mini Kit (QIAGEN, #74136) and cDNA prepared with the Maxima First Strand cDNA Synthesis Kit for RT-PCR (Thermo Fisher Scientific, K1642) according to manufacturer's instructions. The integrity of purified total RNA was evaluated using an Agilent 2100 Bioanalyzer system and RNA 6000 Nano Kit (Agilent, #5067-1511). Differential gene expression analysis was performed (Fios Genomics) from RNA-seq data (Discovery Life Sciences). MYC and MCL1 mRNA levels were measured by qPCR in vitro and in vivo, using a Taqman qPCR system (Thermo Fisher Scientific), TaqMan Fast Universal PCR Master Mix (2X) no AmpErase (#4352042) and TaqMan probes for MYC (Hs00153408_m1) and MCL1 (Hs03043899_m1). RNA-seq data were analyzed using DESeq2 ([35]). RNA-seq data generated from the analysis of two cell lines treated with the three CDK9 inhibitors was analyzed to investigate the differences in gene expression levels between various posttreatment timepoints and the pretreatment samples. Quality control assessment and exploratory data analysis by principal component analysis (PCA) were done on raw counts and on normalized count data. Normalization of RNA-seq count data was done using trimmed mean of M-values normalization and transformed with voom, resulting in log2 counts per million with associated precision weights. […] Significance values (Padj) were adjusted for multiple testing, by controlling the FDR using the Benjamini–Hochberg procedure. […] RNA-seq data generated from blood samples taken from patients before and after their first dose (C1D1) or after multiple doses, before and after their third dose (C1D15) were analyzed and normalized using the same pipeline as cell lines for comparisons.

[3] = system: MYC mRNA in SU-DHL-10 cells; experiment: In vitro washout, MYC mRNA qPCR, SU-DHL-10; details: 1 µmol/L 4 h then washout, maintained for up to 16 hours after treatment
Description: (§3) Evaluation of the pharmacodynamic extent and duration of CDK9 inhibition were performed in vitro using the human DLBCL cell lines SU-DHL-4 and SU-DHL-10, harboring MYC amplification and MYC overexpression with P57T mutation, respectively. Cells were seeded 18 hours prior to treatment for 4 hours with one of three CDK9 inhibitors, enitociclib (0.25 and1 µmol/L), atuveciclib (1 µmol/L) or KB-0742 (1 µmol/L), cells were washed, and incubation continued until 48 hours posttreatment. Samples were collected before treatment (−4), immediately after treatment (0), and at 1, 2, 4, 8, 12, 16, 24, and 48 hours after washout for RNA sequencing (RNA-seq), qPCR, and Western blotting analyses. Total RNA was extracted from blood of patients and cell lines using RNeasy Plus Mini Kit (QIAGEN, #74136) and cDNA prepared with the Maxima First Strand cDNA Synthesis Kit for RT-PCR (Thermo Fisher Scientific, K1642) according to manufacturer's instructions. The integrity of purified total RNA was evaluated using an Agilent 2100 Bioanalyzer system and RNA 6000 Nano Kit (Agilent, #5067-1511). Differential gene expression analysis was performed (Fios Genomics) from RNA-seq data (Discovery Life Sciences). MYC and MCL1 mRNA levels were measured by qPCR in vitro and in vivo, using a Taqman qPCR system (Thermo Fisher Scientific), TaqMan Fast Universal PCR Master Mix (2X) no AmpErase (#4352042) and TaqMan probes for MYC (Hs00153408_m1) and MCL1 (Hs03043899_m1). RNA-seq data were analyzed using DESeq2 ([35]).

[4] = system: RNA polymerase II Ser2 phosphorylation (p-Ser2) in SU-DHL-4 cells; experiment: In vitro washout, p-Ser2 Western blot, SU-DHL-4; details: 1 µmol/L, 4-hour treatment then washout
Description: as §1
(§4) The levels of p-Ser2, p-Ser5 and total RNA polymerase II, Myc, Mcl-1, cleaved PARP (cPARP), and cleaved Caspase 3 were assessed by Western blotting and quantified near-infrared detection and background corrected quantification of fluorescence intensity on an Odyssey Imaging System with IRDye secondary antibodies (LI-COR Biosciences). For quantification, the protein levels were normalized to GAPDH or HSP90, expressed as a ratio to DMSO or vehicle control at matched timepoints. The normalized relative protein levels of p-Ser2 were used for a treatment effect comparison by performing an ANOVA using PROC MIXED in SAS. The ANOVA model included treatment, timepoints and their interactions as fixed effects. The least square means (LSM), differences between the LSMs and associated P values were generated. The following primary antibodies were used: Rpb1 NTD (D8L4Y) rabbit antibody [Cell Signaling Technology (CST), #14958], anti-RNA polymerase II subunit B1 (phospho CTD Ser-2, clone 3E10) rat antibody (Merck, 04-1571-I), recombinant anti-c-MYC rabbit antibody (Y69; Abcam, #ab32072), MCL1 (D5V5L) rabbit antibody (CST, #39224), cleaved-PARP (Asp214) (E2T4K) mouse antibody (CST, #32563), HSP90 (C45G5) rabbit antibody (CST, #4877), and GAPDH mouse antibody (Zytomed Systems, #ZYT-RGM2-6C5).

[5] = system: MCL1 mRNA in SU-DHL-10 cells; experiment: In vitro washout, MCL1 mRNA qPCR, SU-DHL-10; details: 1 µmol/L 4 h then washout, maintained for up to 16 hours after treatment
Description: as §3

[6] = system: RNA polymerase II Ser2 phosphorylation (p-Ser2) in SU-DHL-10 cells; experiment: In vitro washout, p-Ser2 Western blot, SU-DHL-10; details: 1 µmol/L, 4-hour treatment then washout
Description: as §1, §4

cPARP in SU-DHL-10 cells = experiment: In vitro washout, cPARP Western blot, SU-DHL-10; details: 1 µmol/L, 4 h treatment then washout
Description: as §1, §2

SMILES | sustained Myc and Mcl-1 protein depletion for 48 hours (in words) [1] | PHF23 and TP53RK by RNA-seq (in words) [2] | MCL1 mRNA by RNA-seq (in words) ([2]; 4 hours treatment, in vitro) | MYC mRNA by RNA-seq (in words) ([2]; 4 hours treatment, in vitro) | ZPF36 by RNA-seq (in words) ([2]; 4 hours treatment, in vitro) | depletion of MYC mRNA levels [3] | decrease of p-Ser2 levels [4] | duration of p-Ser2 decrease [4] | depletion of MCL1 mRNA levels [5] | p-Ser2 inhibition (in words) [6] | effect on cPARP (in words) (cPARP in SU-DHL-10 cells)
COc1cc(F)ccc1-c1ncnc(Nc2cccc(C[S@](C)(=N)=O)c2)n1 [atuveciclib, reference compound] | this was achieved | not | downregulation is observed but not statistically significant | statistically significantly downregulated | significantly downmodulated | approximately 50% | ~50% | up to 16 hours | approximately 50% | only in the presence of the treatment compound and not after washout | –
CCC(CC)c1cc(N[C@H]2CC[C@H](N)C2)n2nccc2n1 [KB-0742] | – | not | upregulated | not statistically significant | – | approximately 50% | 50% | up to 12 hours | approximately 50% | only in the presence of the treatment compound and not after washout | no effect

— paper PMC10634346 (Cancer Research Communications, 2023)
